Laboratory results published in patent US20140341922A1, “Method for Overcoming Tolerance to Targeted Anti-Cancer Agent” (SUN R&DB Foundation, priority 2011, published 2014).
“Also recorded” adds a separate entry of the source.

What was measured:
IGF-1R = biological target: T1, IGF-1R (Homo sapiens, UniProt P08069); assay: IGF-1-induced IGF-1R phosphorylation, Western blot; type: cell-based; details: LN686 cells, cixutumumab 6 h, then 100 ng/ml IGF-1 for 30 min
T1 construct: endogenous in cells; host or cells: LN686 cells
Procedure: Preparation of total cell lysates, Western blot analysis, and immunoprecipitation were performed according to methods described in our previous report (Morgillo et al., 2006).
LN686 cells were treated with increasing concentrations of cixutumumab for 6 h, and then stimulated with 100 ng/ml IGF-1 for 30 min.

[1] = test system: 13 HNSCC and 6 NSCLC cells; assay: MTT cell viability in conventional 2D culture (TCPs); type: cell-based, human; details: 25 μg/ml, up to 7 days, MTT assay
Procedure: A panel of 13 HNSCC and 6 NSCLC cells grown in 2D culture conditions using TCPs were treated with 25 μg/ml cixutumumab, and the effect of cixutumumab on growth of cancer cells tested was analyzed by the MTT assay.
The effect of cixutumumab on growth of 13 HNSCC and 6 NSCLC cells was evaluated by the MTT assay, and the results are shown in FIG. 2.
LN686, UMSCC38, and A549m cells were treated with cixutumumab diluted in 1% FBS-containing medium for 3 and 5 days. Cell viability was evaluated by the MTT assay.

HNSCC and NSCLC cells = assay: Soft agar colony formation assay; type: cell-based, human
Procedure: To evaluate the effect on anchorage-independent colony formation, cells were suspended in 0.4% agar in media at a density of 2×10^3 cells per well, replated in 12-well plates that have been pre-coated with 0.8% agar, and cultured in growth medium containing cixutumumab (25 μg/ml) for 2-6 weeks. Cells were stained with 0.1% Coomassie brilliant blue in PBS, and the colonies >0.2 mm in diameter were counted. Independent experiments were repeated three times.
Because cells grown in the 3D environment might differ from cells growing in PCPs and UAPs, the present inventor evaluated the effects of cixutumumab on cell growth in soft agar, a 3D culture system. 10 HNSCC and 6 NSCLC cells were cultured in soft agar for 4 to 6 weeks in the presence or absence of cixutumumab (25 μg/ml).

[2] = test system: LN686, H226B, UMSCC38 and A549m xenograft tumors; assay: Xenograft tumors of drug-resistant and -sensitive cells in nude mice; type: in vivo; details: intraperitoneal, 25 mg/kg twice a week
Procedure: LN686, UMSCC38, H226B, or A549m cells (1×10^6 cells/mouse in 100 μl of PBS) were subcutaneously injected into nude mice at a single dorsal flank site (6-9 mice per group). For HNSCC patient-derived tumor xenografts, primary human tumor specimens were collected from an untreated patient who underwent lobectomies of squamous carcinoma of the oral cavity. The tumors were cut into small pieces with a size of 2-mm^3 and subcutaneously implanted into the nude mice (one piece per mouse). At 0 day (the time point when tumor size reached to 80 to 100 mm^3) mice were treated with cixutumumab (10 mg/kg, i.p., once or twice a week), Ad-EV (3×10^11 pfu, intratumoral injection, once a week), Ad-CSK (3×10^11 pfu, intratumoral injection, once a week), siCon, siintegrin β3 ([…], i.p., once a week), dasatinib (20 mg/kg, oral gavage, daily), cixutumumab and Ad-CSK, or cixutumumab and dasatinib.
Tumor xenografts were treated with vehicle or cituxumumab (intraperitoneal, 25 mg/kg) twice a week. Data are presented as mean tumor volume ±SD for indicated time or mean tumor weight at the date of euthanasia ±SD (*P<0.05, **P<0.01, ***P<0.001). […] Thus, antitumor activity of cixutumumab was consistent in cells grown in 3D (or 3D-mimicking) conditions in vitro and in those grown in vivo.

integrin β3 = assay: Immunoprecipitation of integrin β3 / β1 with Src, FAK, p85; type: cell-based, human
Procedure: Total cell lysates were immunoprecipitated with antibodies against integrin β3, integrin β1, or IgG. The precipitates with protein A agarose were resolved by sodium dodecyl sulfate-polyacrylamide gel electrophoresis (SDS-PAGE) and transferred to a polyvinylidene difluoride (PVDF) membrane. Western blot analysis was performed using specific Abs described as follows, and antigen-antibody complexes were visualized using enhanced chemiluminescence plus kits (Amersham Biosciences, Piscataway, N.J.).
The LN686 cells grown in PCP were treated with cixutumumab (25 μg/ml) for indicated times prior to stimulation with 10% FBS (FIGS. 14 and 15) or IGF-1 (100 ng/ml) (FIGS. 16 and 17) in the presence or absence of anti-human IGF-1 neutralizing monoclonal antibody (αIGF-1) (FIGS. 15 and 16) for indicated times (FIG. 16) or for 30 min (FIGS. 14, 15, and 17). Immunoprecipitation with whole proteins or integrin β3 antibodies was performed on the presented proteins, and expression of the proteins was analyzed by western blot analysis.

[3] = test system: recombinant soluble integrin β3 (rβ3) binding to IGF-1; assay: ELISA-type integrin binding assay on IGF-1-coated plates; details: 2 h
Procedure: IGF-1 (1 or 2 μg) was coated onto wells in 96-well microtiter plates and incubated with recombinant integrin β3 (0.5 μg/ml) and/or IGF-1R (0.1 or 0.5 μg/ml) protein diluted in 1 mM MnCl2-added HEPES-Tyrode buffer at room temperature for 2 h in the presence or absence of cixutumumab (10 μg/ml). Binding of integrin β3 and/or IGF-1R was detected by enzyme immunoassay using anti-His or anti-IGF-1R mAbs and avidin-labeled alkaline phosphatase-conjugated anti-mouse or anti-rabbit IgGs.
Secondly, the present inventors performed Enzyme-Linked ImmunoSorbent Assay-type integrin binding assay. Specifically, 96-well microtiter plates coated with IGF-1 were recombinant soluble IGF-1R (rIGF-1R; 5 μg/ml) or recombinant soluble integrin β3 (rβ3; 5 μg/ml), alone or in combination, in the presence or absence of cixutumumab (25 μg/ml) for 2 h. Bound IGF-1R (left) and integrin β3 (middle, right) were identified using anti-IGF1R and anti-His mAbs, respectively. The data are shown as the mean±SD of triplicate experiments (*P<0.05; **P=0.01; ***P<0.001).

T1 sequence (P08069 31-1367): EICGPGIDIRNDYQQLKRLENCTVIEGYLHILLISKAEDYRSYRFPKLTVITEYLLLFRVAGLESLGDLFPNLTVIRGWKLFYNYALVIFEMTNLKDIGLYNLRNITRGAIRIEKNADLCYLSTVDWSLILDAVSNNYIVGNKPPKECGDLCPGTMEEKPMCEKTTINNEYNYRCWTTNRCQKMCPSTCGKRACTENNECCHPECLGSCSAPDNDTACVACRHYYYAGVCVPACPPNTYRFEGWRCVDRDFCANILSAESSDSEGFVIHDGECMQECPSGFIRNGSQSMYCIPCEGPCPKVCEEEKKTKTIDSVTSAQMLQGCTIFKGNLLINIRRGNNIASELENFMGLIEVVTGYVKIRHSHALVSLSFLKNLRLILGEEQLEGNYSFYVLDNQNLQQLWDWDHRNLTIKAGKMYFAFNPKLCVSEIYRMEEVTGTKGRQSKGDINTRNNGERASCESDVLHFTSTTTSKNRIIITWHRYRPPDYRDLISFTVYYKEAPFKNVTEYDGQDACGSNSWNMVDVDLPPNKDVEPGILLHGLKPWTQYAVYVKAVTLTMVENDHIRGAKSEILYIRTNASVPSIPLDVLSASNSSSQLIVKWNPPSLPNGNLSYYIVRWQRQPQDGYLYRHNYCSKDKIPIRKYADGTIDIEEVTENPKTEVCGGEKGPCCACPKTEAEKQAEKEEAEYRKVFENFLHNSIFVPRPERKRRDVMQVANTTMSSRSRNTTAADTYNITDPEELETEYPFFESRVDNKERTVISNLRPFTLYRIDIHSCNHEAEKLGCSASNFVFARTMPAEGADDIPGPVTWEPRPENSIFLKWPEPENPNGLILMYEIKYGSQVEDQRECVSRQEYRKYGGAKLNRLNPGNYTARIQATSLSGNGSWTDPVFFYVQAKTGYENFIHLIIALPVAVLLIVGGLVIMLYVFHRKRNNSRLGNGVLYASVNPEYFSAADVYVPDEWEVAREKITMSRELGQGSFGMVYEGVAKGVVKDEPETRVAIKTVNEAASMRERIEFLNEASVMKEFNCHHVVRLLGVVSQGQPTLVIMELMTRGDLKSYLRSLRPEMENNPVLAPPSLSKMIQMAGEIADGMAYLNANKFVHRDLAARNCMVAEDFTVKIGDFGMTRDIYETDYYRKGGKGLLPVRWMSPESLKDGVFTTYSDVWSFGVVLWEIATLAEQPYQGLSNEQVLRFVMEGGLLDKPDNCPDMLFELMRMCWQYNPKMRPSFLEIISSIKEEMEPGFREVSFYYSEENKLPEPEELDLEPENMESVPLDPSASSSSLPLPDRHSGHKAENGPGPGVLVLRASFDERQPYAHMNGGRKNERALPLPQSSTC

ablation of IGF-1-rβ3 interaction by rIGF-1R [3]: markedly blocked
Substance: cixutumumab: humanized mAb targeting IGF-1R, provided by ImClone Systems
IGF-1-induced IGF-1R phosphorylation (IGF-1R): markedly inhibited; also recorded: concentration-dependent inhibitory effect | viability of cells grown in 2D culture conditions [1]: did not inhibit | colony formation in soft agar (HNSCC and NSCLC cells; OSC19 and A549 cells, 3D system): concentration-dependent inhibitory effects | colonies formed in soft agar (HNSCC and NSCLC cells; sensitive NSCLC and HNSCC lines vs resistant and mildly sensitive lines, 25 μg/ml, 4 to 6 weeks): significantly fewer colonies | growth and weight of xenograft tumors ([2]; LN686 and H226B xenografts): no significant effects | growth and weight of xenograft tumors ([2]; UMSCC38 and A549 xenografts): significantly decreased | FBS-induced associations between integrin β3 and Src or p85 and phosphorylation of FAK and Src (integrin β3; LN686 in PCP, 25 μg/ml, time-dependent): enhanced | associations between integrin β1 and p-Src (Y416) or p-FAK (Y861) (integrin β3; after IGF-1 stimulation, cixutumumab pretreatment): did not affect
